We go through 2 compounds from PMC4352855 (Scientific Reports, 2015).

Assay [1] has as its target T1, LLO (Listeria monocytogenes serovar 1/2a, UniProt P13128).
T1 construct: His6 (C); made in house; host or cells: Escherichia coli BL21(DE3)
The note with it: cited from earlier work.

Assay [2] has as its system L. monocytogenes. The note with it: cited from earlier work.
The target in assay [3] is T2, Y427A-LLO (Listeria monocytogenes serovar 1/2a, UniProt P13128, Y427A).
T2 construct: His6 (C); made in house; host or cells: Escherichia coli BL21(DE3)
The class given is biochemical. The note with it: mutant Y427A compared with LLO, Fig. 2b.

For assay [4], the target named is T3, S466A-LLO (Listeria monocytogenes serovar 1/2a, UniProt P13128, S466A).
T3 construct: His6 (C); made in house; host or cells: Escherichia coli BL21(DE3)
The class given is biochemical. The settings on record: mutant S466A compared with LLO, Fig. 2b.

Assay [5] concerns the target T4, S467A-LLO (Listeria monocytogenes serovar 1/2a, UniProt P13128, S467A).
T4 construct: His6 (C); made in house; host or cells: Escherichia coli BL21(DE3)
The class given is biochemical. The note with it: mutant S467A compared with LLO, Fig. 2b.

The target in assay [6] is T5, V428A-LLO (Listeria monocytogenes serovar 1/2a, UniProt P13128, V428A).
T5 construct: His6 (C); made in house; host or cells: Escherichia coli BL21(DE3)
The class given is biochemical. The settings on record: mutant V428A compared with LLO, Fig. 2b.

Entries after “also recorded” stand apart in the source; their conditions may differ.

As to `O=c1c(O)c(-c2ccc(O)c(O)c2)oc2cc(O)ccc12` [fisetin], the “effect on hemolytic activity of LLO” value in assay [1] is “inhibit its hemolytic activity; also recorded: attenuating the hemolytic activity of LLO”. Besides, the antimicrobial activity entry in assay [2] is “without antimicrobial activity; also recorded: without anti-bacterial activity”.

As to `O=c1c(O)c(-c2cc(O)c(O)c(O)c2)oc2cc(O)cc(O)c12` [Myr, myricetin], the “sensitivity to Myr in the inhibition of hemolytic activity” value in assay [3], in assay [4], in assay [5] and in assay [6] was “less sensitive” throughout.
